The source of these data is US20220378756A1, “ACTIVATING PYRUVATE KINASE R” (FORMA Therapeutics, Inc., priority 2019, published 2022).

“And” between values parts separate entries of the source, which are not always exact repeats. Identical values can stand only once.

The subject of data set [1] is Berkeley SS mouse (human HgbS). As to the kind of experiment: Berkeley SS mouse model of SCD, 7 days in chow. The class given is in vivo. The settings on record: 1000 ppm in chow. An excerpt: Targeted gene deletions and a human transgene in the Berkeley SS mouse model result in mice that express human HgbS almost exclusively (Pászty C. Transgenic and gene knock-out mouse models of sickle cell anemia and the thalassemias. Curr Opin Hematol. 1997 March; 4(2):88-93) and mimic the genetic, hematologic, and histopathologic features of SCD in humans. These include irreversibly sickled RBCs, anemia, and multi-organ pathology.
The effects of Compound 1 on Hgb affinity for oxygen, percentage of sickled cells, and/or Hgb were evaluated in the Berkley SS mouse. Two studies were conducted where mice received 0 or 1000 ppm Compound 1 ad libitum in mouse chow for 7 days. Blood was drawn on Day 7 and analyzed under hypoxic conditions. Red cell parameters were measured by ADVIA.

Data set [2] relates to H295R adreno-cortical carcinoma cell line. As to the kind of experiment: Cell viability (MTT Kit). The class given is cell-based. As to the method: To assess potential effects on steroidogenesis, Compound 1 was screened for steroid modulation in vitro using the H295R adreno-cortical carcinoma cell line (at 200 to 0.0002 μM) and in an assay to monitor cell viability (MTT Kit). Compound 1 indicated steroid modulation potential (% over vehicle) only at 200 µM, the top concentration tested, with 100% cellular viability at concentrations ≤20 μM (90% viability at 200 μM).

Data set [3] can be described thus: Preclinical safety and in vitro panels.
Data set [4] addresses T1, PKR in mouse red blood cells (Mus musculus, UniProt P53657).
T1 construct: endogenous in cells; host or cells: mouse RBCs isolated fresh from whole blood
In words: PKR activation in mouse red blood cells. The class given is cell-based. Particulars: mouse RBCs. As for the experimental part: (§1) The activation of wt-PKR by Compound 1 in mature human erythrocytes ex vivo was evaluated in purified RBCs purchased from Research Blood Components. Cells treated with Compound 1 for 3 hr in glucose-containing media were washed, lysed, and assayed using a Biovision Pyruvate Kinase Assay (K709-100). The assay was repeated multiple times to account for donor-to-donor variability and the relatively narrow dynamic range.
Mouse RBCs were isolated fresh from whole blood using a Ficoll gradient and assayed with methods similar to those used in the human RBCs assays.

Data set [5] addresses T2, wt-PKR in mature human erythrocytes (Homo sapiens, UniProt P30613).
T2 construct: host or cells: purified human RBCs from donors
In words: Cell assay: PKR activation in purified human RBCs (Biovision Pyruvate Kinase Assay). The settings on record: 3 hr treatment. Format: cell-based. As for the experimental part:
as §1

The next data set deals with Human SCD cells. In words: Ex vivo sickling under severe hypoxic conditions (2% oxygen). Format: cell-based. Particulars: 10 μM. As for the experimental part: Red blood cells from SCD patients were used to evaluate the effects of Compound 1 on Hgb affinity for oxygen (i.e., oxygen affinity) and sickling under hypoxic conditions. Cells were incubated at 37° C. for 1, 2, and 3 hr with HEPES buffered saline (HBS) (untreated), HBS+dimethyl sulfoxide (DMSO) (vehicle), or 10 μM Compound 1. To assess oxygen dissociation, Hgb oxygen equilibrium curves were collected during deoxygenation.
Compound 1 (10 μM) reduced cell sickling under severe hypoxic conditions of 2% oxygen (PO2 of <20 mmHg) for up to 20 min (Table 9).

For data set [6], the system named is 2,3-DPG and ATP levels in whole blood. As to the kind of experiment: PK/PD studies in wild type mice, QDx7 oral gavage. Format: in vivo, Balb/c mice. As to the method: Two pharmacokinetic (PK)/pharmacodynamic (PD) studies were conducted in Balb/c mice that were administered Compound 1 once daily by oral gavage (formulated in 10% Cremophor EL/10% PG/80% DI water) for 7 days (QD×7) at doses of 0 (vehicle), 3.75, 7.5, 15, 30, 60 mg/kg (Study 1); 0 (vehicle), 7.5, 15, 30, 60, 120, or 240 mg/kg (Study 2). On the 7th day, whole blood was collected 24 hours after dosing and snap frozen. Samples were later thawed and analyzed by LC/MS for 2,3-DPG and ATP levels.

Data set [7] is described as follows: Phase 1 SAD/MAD, healthy volunteers: pharmacokinetics. The class given is in vivo, human. An excerpt:
This is a first-in-human (FIH), Phase 1 study of Compound 1 that will characterize the safety, PK, and PD of Compound 1 after a single dose and after repeated dosing first in healthy adult volunteers and then in adolescents or adults with sickle cell disease. Initially, a dose range of Compound 1 in single ascending dose (SAD) escalation cohorts will be explored in healthy subjects. Enrollment of healthy subjects into 2-week multiple ascending dose (MAD) escalation cohorts will be initiated once the safety and PK from at least two SAD cohorts is available to inform the doses for the 2-week MAD portion of the study. The MAD cohorts will then run in parallel to the single dose cohorts. A single dose cohort is planned to understand food effects (FE) on the PK of Compound 1. […] Multiple dose studies in SCD subjects will then be initiated upon completion of MAD studies in healthy volunteers. Compound 1 will be administered in 25 mg and 100 mg tablets delivered orally.
In this study, SAD/MAD cohorts are randomized (3 to 1) to receive Compound 1 or placebo (P). Compound 1 was evaluated first in 4 healthy SAD cohorts and 4 healthy MAD (14-day dosing period) cohorts. Based on the safety, and PK/PD profile from HS, Compound 1 is then evaluated in 1 SCD SAD cohort and 2 SCD MAD cohorts. Specifically, based on the safety and pharmacokinetic/pharmacodynamics (PK/PD) profile in healthy volunteer studies, Compound 1 is evaluated in patients (pts) with SCD, first in a single dose (SD or SAD) cohort and then in multiple-dose (MD or MAD) cohorts (14-day and 12-week). Safety assessments include AEs, vital signs, ECGs and laboratory parameters. PK/PD blood sampling was performed on Day 1 (SAD/MAD) and Day 14 (MAD) and up to 72 h after the last dose and at the end-of-study visit. […]
Four healthy SAD cohorts were evaluated at doses of 200, 400, 700, and 1000 mg, and four healthy MAD cohorts received 200 to 600 mg total daily doses for 14 days at QD or BID dosing (100 mg BID, 200 mg BID, 300 mg BID, and 400 mg QD). […]

T1 sequence (P53657 whole entry): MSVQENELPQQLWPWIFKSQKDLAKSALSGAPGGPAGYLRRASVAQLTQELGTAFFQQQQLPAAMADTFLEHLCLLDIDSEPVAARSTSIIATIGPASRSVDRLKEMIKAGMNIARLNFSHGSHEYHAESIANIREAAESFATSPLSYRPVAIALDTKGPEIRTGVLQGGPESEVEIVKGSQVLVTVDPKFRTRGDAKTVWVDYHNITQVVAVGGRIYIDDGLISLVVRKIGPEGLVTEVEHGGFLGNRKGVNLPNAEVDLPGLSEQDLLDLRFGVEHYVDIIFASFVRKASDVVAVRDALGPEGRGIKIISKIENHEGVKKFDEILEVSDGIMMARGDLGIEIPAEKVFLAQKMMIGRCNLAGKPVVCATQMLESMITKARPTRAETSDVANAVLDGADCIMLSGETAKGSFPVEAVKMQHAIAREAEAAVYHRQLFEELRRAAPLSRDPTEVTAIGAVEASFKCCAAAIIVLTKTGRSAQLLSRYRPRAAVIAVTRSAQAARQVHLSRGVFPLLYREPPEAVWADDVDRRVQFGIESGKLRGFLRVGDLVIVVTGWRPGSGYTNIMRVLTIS
T2 sequence (P30613 whole entry): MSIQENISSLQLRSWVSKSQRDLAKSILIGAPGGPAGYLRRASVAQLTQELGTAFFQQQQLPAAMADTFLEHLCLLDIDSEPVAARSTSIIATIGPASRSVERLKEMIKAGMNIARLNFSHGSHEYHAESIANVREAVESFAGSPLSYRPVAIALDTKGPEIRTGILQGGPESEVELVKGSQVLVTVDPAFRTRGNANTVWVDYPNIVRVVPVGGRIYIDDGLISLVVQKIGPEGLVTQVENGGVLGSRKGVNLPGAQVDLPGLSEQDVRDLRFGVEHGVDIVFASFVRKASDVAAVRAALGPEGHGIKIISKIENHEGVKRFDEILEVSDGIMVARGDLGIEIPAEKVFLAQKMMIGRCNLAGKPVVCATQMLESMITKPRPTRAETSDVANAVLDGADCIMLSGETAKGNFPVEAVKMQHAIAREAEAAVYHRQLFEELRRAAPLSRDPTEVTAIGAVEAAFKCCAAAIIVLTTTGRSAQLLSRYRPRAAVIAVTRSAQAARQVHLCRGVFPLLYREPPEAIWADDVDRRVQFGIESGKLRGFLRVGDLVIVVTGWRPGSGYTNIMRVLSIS

With `O=C([C@H](CO)c1ccccc1)N1CC2=C(C1)CN(S(=O)(=O)c1cnc3c(c1)OCCO3)C2` (single isomer, unassigned) [Compound 1], the Hgb increase entry in data set [1] is “≈ 1 g/dL”. Also, the cellular viability in data set [2] (200 μM) is listed as 90%; in data set [2] (concentrations ≤20 μM), 100%. In addition, the “preclinical evidence of arrhythmia risk, mutagenicity, nonspecific binding” value in data set [3] is listed as “has not demonstrated any preclinical evidence of arrhythmia risk, mutagenicity, or nonspecific binding activity”. Further, the “Max-Min (%)” value in data set [4] (individual replicates 1-2) was <50% and <100%; in data set [5] (individual replicates 1-4) it was <125% and <150% and <100% and <50%. The “Max-Min (%), mean” value in data set [4] (mean) is on record as under 100%. In data set [5] (mean of replicates), the “Max-Min (%), mean maximum activation increase” value was under 100%. For the same compound, the “% Protection” value with Human SCD cells (15 min in hypoxic conditions (maximum)) stood at 16%. Moreover, the “Net % of Sickled Cells” value in the data set on Human SCD cells (20 min in hypoxic conditions, DMSO 71) turned out to be 60%. The “reduction of 2,3-DPG levels in blood” value in data set [6] (120 and 240 mg/kg (≥120 mg/kg) QDx7 oral) was over 30%; in data set [6] (≥15 mg/kg QDx7 oral, 24 h after dosing on day 7), over 20%. Moreover, the “ATP increase compared to vehicle” value in data set [6] (Study 1, 30 mg/kg QDx7 oral) is 21%; in data set [6] (Study 1, 60 mg/kg QDx7 oral), 79%. Also, the ATP increase was 45% in data set [6] (Study 2, 240 mg/kg QDx7 oral (highest dose)) and over 40% in data set [6] (≥60 mg/kg). Besides, in data set [6] (Study 2, doses up to 120 mg/kg QDx7 oral), the “maximum ATP increase compared to vehicle” value is listed as about 110%. The tolerability result in data set [6] (both studies, up to 240 mg/kg QDx7, no adverse clinical signs, no body weight difference) is “well tolerated”. For the same compound, the “exposure under fed/fasted conditions” value in data set [7] (food effect cohort, 200 mg) was “similar”. For the same compound, the “observed clearance on day 1 and day 14” value in data set [7] (healthy subjects, 14 days of dosing) was “unchanged”. For the same compound, the “time of pharmacokinetic maximum” value in data set [7] (healthy volunteers, single dose 400 mg, FIG. 43) was in the range of 1 to 2 h.
